Measured values: patent publication US12252492B2, “Substituted fused pyrrolo-diazepinones and uses thereof” (Northwestern University, priority 2018, dated 2025)

Key:
Type in all cases: cell-based, human
SK-OV-3 = assay: NCI60 one-dose screen, SK-OV-3; conditions: SK-OV-3 (Ovarian Cancer); NCI 60 one-dose, 10^-5 M
Method: (§1) Anti-cancer activity screening of all compounds was performed by the NCI Developmental Therapeutics Program (DTP) through their NCI60 screening initiative. Assay details can be found at the website dtp.cancer.gov/discovery_development/nci-60/methodology.htm. Information from this website is reproduced here for convenience.
(§2) As of early 2007 all compounds submitted to the NCI 60 Cell screen are tested initially at a single high dose (10^-5 M) in the full NCI 60 cell panel. Only compounds which satisfy pre-determined threshold inhibition criteria in a minimum number of cell lines will progress to the full 5-dose assay. The threshold inhibition criteria for progression to the 5-dose screen was selected to efficiently capture compounds with anti-proliferative activity based on careful analysis of historical DTP screening data. The threshold criteria may be updated as additional data becomes available.
(§3) The One-dose data will be reported as a mean graph of the percent growth of treated cells and will be similar in appearance to mean graphs from the 5-dose assay. […]
(§4) Following drug addition, the plates are incubated for an additional 48 h at 37° C., 5% CO2, 95% air, and 100% relative humidity. […] Bound stain is subsequently solubilized with 10 mM trizma base, and the absorbance is read on an automated plate reader at a wavelength of 515 nm. […]

HOP-92 = assay: NCI60 one-dose screen, HOP-92; conditions: HOP-92 (Non-Small Cell Lung Cancer); NCI 60 one-dose, 10^-5 M
Method: as §1, §2, §3, §4

OVCAR-5 = assay: NCI60 one-dose screen, OVCAR-5; conditions: OVCAR-5 (Ovarian Cancer); NCI 60 one-dose, 10^-5 M
Method: as §1, §2, §3, §4

TK-10 = assay: NCI60 one-dose screen, TK-10; conditions: TK-10 (Renal Cancer); NCI 60 one-dose, 10^-5 M
Method: as §1, §2, §3, §4

SK-MEL-2 = assay: NCI60 one-dose screen, SK-MEL-2; conditions: SK-MEL-2 (Melanoma); NCI 60 one-dose, 10^-5 M
Method: as §1, §2, §3, §4

SK-MEL-5 = assay: NCI60 one-dose screen, SK-MEL-5; conditions: SK-MEL-5 (Melanoma); NCI 60 one-dose, 10^-5 M
Method: as §1, §2, §3, §4

OVCAR-8 = assay: NCI60 one-dose screen, OVCAR-8; conditions: OVCAR-8 (Ovarian Cancer); NCI 60 one-dose, 10^-5 M
Method: as §1, §2, §3, §4

MALME-3M = assay: NCI60 one-dose screen, MALME-3M; conditions: MALME-3M (Melanoma); NCI 60 one-dose, 10^-5 M
Method: as §1, §2, §3, §4

MCF7 = assay: NCI60 one-dose screen, MCF7; conditions: MCF7 (Breast Cancer); NCI 60 one-dose, 10^-5 M
Method: as §1, §2, §3, §4

HOP-62 = assay: NCI60 one-dose screen, HOP-62; conditions: HOP-62 (Non-Small Cell Lung Cancer); NCI 60 one-dose, 10^-5 M
Method: as §1, §2, §3, §4

LOX IMVI = assay: NCI60 one-dose screen, LOX IMVI; conditions: LOX IMVI (Melanoma); NCI 60 one-dose, 10^-5 M
Method: as §1, §2, §3, §4

MDA-MB-468 = assay: NCI60 one-dose screen, MDA-MB-468; conditions: MDA-MB-468 (Breast Cancer); NCI 60 one-dose, 10^-5 M
Method: as §1, §2, §3, §4

SNB-75 = assay: NCI60 one-dose screen, SNB-75; conditions: SNB-75 (CNS Cancer); NCI 60 one-dose, 10^-5 M
Method: as §1, §2, §3, §4

COLO 205 = assay: NCI60 one-dose screen, COLO 205; conditions: COLO 205 (Colon Cancer); NCI 60 one-dose, 10^-5 M
Method: as §1, §2, §3, §4

CCRF-CEM = assay: NCI60 one-dose screen, CCRF-CEM; conditions: CCRF-CEM (Leukemia); NCI 60 one-dose, 10^-5 M
Method: as §1, §2, §3, §4

SF-295 = assay: NCI60 one-dose screen, SF-295; conditions: SF-295 (CNS Cancer); NCI 60 one-dose, 10^-5 M
Method: as §1, §2, §3, §4

SW-620 = assay: NCI60 one-dose screen, SW-620; conditions: SW-620 (Colon Cancer); NCI 60 one-dose, 10^-5 M
Method: as §1, §2, §3, §4

UO-31 = assay: NCI60 one-dose screen, UO-31; conditions: UO-31 (Renal Cancer); NCI 60 one-dose, 10^-5 M
Method: as §1, §2, §3, §4

SMILES | Growth Percent (SK-OV-3) [%] | Growth Percent (HOP-92) [%] | Growth Percent (OVCAR-5) [%] | Growth Percent (TK-10) [%] | Growth Percent (SK-MEL-2) [%] | Growth Percent (SK-MEL-5) [%] | Growth Percent (OVCAR-8) [%] | Growth Percent (MALME-3M) [%] | Growth Percent (MCF7) [%] | Growth Percent (HOP-62) [%] | Growth Percent (LOX IMVI) [%] | Growth Percent (MDA-MB-468) [%] | Growth Percent (SNB-75) [%] | Growth Percent (COLO 205) [%] | Growth Percent (CCRF-CEM) [%] | Growth Percent (SF-295) [%] | Growth Percent (SW-620) [%] | Growth Percent (UO-31) [%]
CC(=O)N1c2ccccc2NC2=C(C(=O)N(Cc3ccccc3)C2(C)C)C1c1ccco1 (stereo not drawn) [NUCC-608455] | 22.71 | 21.07 | 25.92 | 54.92 | 16.91 | 7.88 | 26.13 | 69.89 | 15.26 | 33.09 | 25.57 | −1.86 | 16.83 | 16.77 | 24.15 | −0.75 | 21.68 | 52.54
CC(=O)N1c2ccccc2NC2=C(C(=O)N(C)C2(C)C)C1c1ccccc1 (stereo not drawn) [NUCC-60872] | 55.42 | 37.54 | 62.50 | 87.08 | 8.92 | 27.50 | 65.84 | 44.26 | 16.41 | 61.59 | 37.52 | 19.19 | −3.29 | 14.23 | 20.66 | 45.97 | 24.24 | 81.99
